Laboratory results reported in publication PMC6874179, “Development of Macrocycle Kinase Inhibitors for ALK2 Using Fibrodysplasia Ossificans Progressiva‐Derived Endothelial Cells” (JBMR Plus, 2019).

Columns and labels:
Test in all cases: Proqinase Kinase profiling
Format in all cases: biochemical
Conditions in all cases: read-out: % inhibition at 100nM
CLK1 = biological target: T1, CLK1 (Homo sapiens, UniProt P49759)
T1 construct: purchased DiscoverX

PIM3 = biological target: T2, PIM3 (Homo sapiens, UniProt Q86V86)
T2 construct: purchased DiscoverX

DYRK3 = biological target: T3, DYRK3 (Homo sapiens, UniProt O43781)
T3 construct: purchased DiscoverX

ZAK = biological target: T4, ZAK (Homo sapiens, UniProt Q9NYL2)
T4 construct: purchased DiscoverX

KIT_V654A = biological target: T5, KIT_V654A (Homo sapiens, UniProt P10721, V654A)
T5 construct: purchased DiscoverX

STK3 = biological target: T6, STK3 (Homo sapiens, UniProt Q13188)
T6 construct: purchased DiscoverX

TSSK1B = biological target: T7, TSSK1B (Homo sapiens, UniProt Q9BXA7)
T7 construct: purchased DiscoverX

JAK1 = biological target: T8, JAK1 (Homo sapiens, UniProt P23458)
T8 construct: purchased DiscoverX

STK16 = biological target: T9, STK16 (Homo sapiens, UniProt O75716)
T9 construct: purchased DiscoverX

TYK2 = biological target: T10, TYK2 (Homo sapiens, UniProt P29597)
T10 construct: purchased DiscoverX

TBK1 = biological target: T11, TBK1 (Homo sapiens, UniProt Q9UHD2)
T11 construct: purchased DiscoverX

ALK = biological target: T12, ALK (Homo sapiens, UniProt Q9UM73)
T12 construct: purchased DiscoverX
T12 sequence (Q9UM73 19-1620): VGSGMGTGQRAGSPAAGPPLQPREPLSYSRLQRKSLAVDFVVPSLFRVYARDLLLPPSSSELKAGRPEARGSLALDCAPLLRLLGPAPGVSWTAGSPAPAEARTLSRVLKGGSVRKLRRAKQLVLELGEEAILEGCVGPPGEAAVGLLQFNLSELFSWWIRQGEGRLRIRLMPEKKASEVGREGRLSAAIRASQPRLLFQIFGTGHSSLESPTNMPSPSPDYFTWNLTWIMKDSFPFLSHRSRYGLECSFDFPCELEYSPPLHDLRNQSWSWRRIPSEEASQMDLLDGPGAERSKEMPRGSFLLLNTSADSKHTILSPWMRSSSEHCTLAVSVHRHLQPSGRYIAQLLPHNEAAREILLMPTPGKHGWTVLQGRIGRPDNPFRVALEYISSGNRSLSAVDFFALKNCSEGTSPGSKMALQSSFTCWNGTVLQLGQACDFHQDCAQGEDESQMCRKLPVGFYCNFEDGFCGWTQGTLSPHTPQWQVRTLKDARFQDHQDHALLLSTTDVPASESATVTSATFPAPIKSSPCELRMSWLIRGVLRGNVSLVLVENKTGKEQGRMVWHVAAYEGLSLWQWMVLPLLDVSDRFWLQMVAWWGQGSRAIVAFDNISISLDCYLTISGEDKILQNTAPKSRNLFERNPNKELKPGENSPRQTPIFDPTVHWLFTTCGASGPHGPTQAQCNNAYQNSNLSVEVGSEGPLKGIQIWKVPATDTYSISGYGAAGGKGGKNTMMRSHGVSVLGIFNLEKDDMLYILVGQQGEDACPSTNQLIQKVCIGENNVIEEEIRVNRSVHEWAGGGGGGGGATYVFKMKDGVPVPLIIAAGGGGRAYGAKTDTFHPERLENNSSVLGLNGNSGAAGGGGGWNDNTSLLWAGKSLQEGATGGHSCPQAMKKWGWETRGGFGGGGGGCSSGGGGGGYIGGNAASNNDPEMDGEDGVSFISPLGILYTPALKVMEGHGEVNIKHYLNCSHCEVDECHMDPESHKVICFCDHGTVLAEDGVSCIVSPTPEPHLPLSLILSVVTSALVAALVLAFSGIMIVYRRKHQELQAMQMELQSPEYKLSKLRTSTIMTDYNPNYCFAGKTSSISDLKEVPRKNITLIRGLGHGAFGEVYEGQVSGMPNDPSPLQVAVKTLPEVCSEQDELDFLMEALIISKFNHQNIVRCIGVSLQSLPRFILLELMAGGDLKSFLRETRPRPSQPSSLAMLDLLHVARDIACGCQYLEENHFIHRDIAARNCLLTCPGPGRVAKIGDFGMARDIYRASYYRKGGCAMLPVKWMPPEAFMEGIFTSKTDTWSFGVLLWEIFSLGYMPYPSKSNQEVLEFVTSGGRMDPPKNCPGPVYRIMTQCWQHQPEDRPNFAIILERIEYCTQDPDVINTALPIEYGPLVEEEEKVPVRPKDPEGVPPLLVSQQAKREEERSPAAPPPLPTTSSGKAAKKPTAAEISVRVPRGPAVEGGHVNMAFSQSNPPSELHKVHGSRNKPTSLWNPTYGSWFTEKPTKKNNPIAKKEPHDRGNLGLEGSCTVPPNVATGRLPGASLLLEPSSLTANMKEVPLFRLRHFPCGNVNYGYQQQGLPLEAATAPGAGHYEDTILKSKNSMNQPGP

BRSK1 = biological target: T13, BRSK1 (Homo sapiens, UniProt Q8TDC3)
T13 construct: purchased DiscoverX
T13 sequence (Q8TDC3 whole entry): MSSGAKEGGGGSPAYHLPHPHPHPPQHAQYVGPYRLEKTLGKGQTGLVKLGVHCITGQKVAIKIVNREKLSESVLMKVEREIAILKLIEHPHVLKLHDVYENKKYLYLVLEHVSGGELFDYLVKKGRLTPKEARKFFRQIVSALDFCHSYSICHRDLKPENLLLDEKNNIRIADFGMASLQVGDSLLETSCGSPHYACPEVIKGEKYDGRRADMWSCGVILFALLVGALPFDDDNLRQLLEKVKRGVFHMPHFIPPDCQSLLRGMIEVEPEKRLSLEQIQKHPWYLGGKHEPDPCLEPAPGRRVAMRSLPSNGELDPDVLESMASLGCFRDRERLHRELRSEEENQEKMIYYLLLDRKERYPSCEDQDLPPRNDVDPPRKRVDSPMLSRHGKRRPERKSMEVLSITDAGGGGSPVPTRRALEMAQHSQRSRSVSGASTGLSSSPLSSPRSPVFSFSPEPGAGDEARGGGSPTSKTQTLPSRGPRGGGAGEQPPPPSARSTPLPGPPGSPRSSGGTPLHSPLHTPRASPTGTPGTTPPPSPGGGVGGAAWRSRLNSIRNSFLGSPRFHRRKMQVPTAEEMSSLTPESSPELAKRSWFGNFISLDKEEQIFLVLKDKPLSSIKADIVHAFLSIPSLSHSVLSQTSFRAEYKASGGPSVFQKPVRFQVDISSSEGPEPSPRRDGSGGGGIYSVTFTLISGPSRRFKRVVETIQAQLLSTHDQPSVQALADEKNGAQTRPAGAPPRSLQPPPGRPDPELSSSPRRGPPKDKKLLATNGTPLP

MAPK15 = biological target: T14, MAPK15 (Homo sapiens, UniProt Q8TD08)
T14 construct: purchased DiscoverX
T14 sequence (Q8TD08 whole entry): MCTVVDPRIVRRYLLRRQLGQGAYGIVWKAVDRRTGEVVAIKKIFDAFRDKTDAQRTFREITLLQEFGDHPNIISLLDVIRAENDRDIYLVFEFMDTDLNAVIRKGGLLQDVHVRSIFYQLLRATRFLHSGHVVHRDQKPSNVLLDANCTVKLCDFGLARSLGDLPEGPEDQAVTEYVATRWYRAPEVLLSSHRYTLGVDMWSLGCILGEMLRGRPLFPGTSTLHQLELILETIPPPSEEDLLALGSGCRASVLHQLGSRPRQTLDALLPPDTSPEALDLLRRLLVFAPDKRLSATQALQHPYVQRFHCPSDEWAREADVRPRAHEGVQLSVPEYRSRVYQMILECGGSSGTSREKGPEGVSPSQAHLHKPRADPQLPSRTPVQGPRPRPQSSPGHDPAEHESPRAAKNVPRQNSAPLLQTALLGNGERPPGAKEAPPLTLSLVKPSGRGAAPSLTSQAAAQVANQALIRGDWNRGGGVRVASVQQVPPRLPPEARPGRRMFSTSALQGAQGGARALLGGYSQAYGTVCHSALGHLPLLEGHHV

PRKG2 = biological target: T15, PRKG2 (Homo sapiens, UniProt Q13237)
T15 construct: purchased DiscoverX

PAK4 = biological target: T16, PAK4 (Homo sapiens, UniProt O96013)
T16 construct: purchased DiscoverX

KIT_D816V = biological target: T17, KIT_D816V (Homo sapiens, UniProt P10721, D816V)
T17 construct: purchased DiscoverX

MAP2K1 = biological target: T18, MAP2K1 (Homo sapiens, UniProt Q02750)
T18 construct: purchased DiscoverX

PIM2 = biological target: T19, PIM2 (Homo sapiens, UniProt Q9P1W9)
T19 construct: purchased DiscoverX

EGFR_L747-S752del_P753S = biological target: T20, EGFR_L747-S752del_P753S (Homo sapiens, UniProt P00533, DEL747-752/P753S)
T20 construct: purchased DiscoverX

PRKAA1 = biological target: T21, PRKAA1 (Homo sapiens, UniProt Q13131)
T21 construct: purchased DiscoverX

WEE1 = biological target: T22, WEE1 (Homo sapiens, UniProt P30291)
T22 construct: purchased DiscoverX

TEK_R849W = biological target: T23, TEK_R849W (Homo sapiens, UniProt Q02763, R849W)
T23 construct: purchased DiscoverX

EPHA7 = biological target: T24, EPHA7 (Homo sapiens, UniProt Q15375)
T24 construct: purchased DiscoverX

ALK_F1174L = biological target: T25, ALK_F1174L (Homo sapiens, UniProt Q9UM73, F1174L)
T25 construct: purchased DiscoverX
T25 sequence (Q9UM73 19-1620 F1174L): as the sequence (Q9UM73 19-1620) above, with F1156L counted along it

EPHB4 = biological target: T26, EPHB4 (Homo sapiens, UniProt P54760)
T26 construct: purchased DiscoverX

RPS6KA6 = biological target: T27, RPS6KA6 (Homo sapiens, UniProt Q9UK32)
T27 construct: purchased DiscoverX

MAPK11 = biological target: T28, MAPK11 (Homo sapiens, UniProt Q15759)
T28 construct: purchased DiscoverX

FES = biological target: T29, FES (Homo sapiens, UniProt P07332)
T29 construct: purchased DiscoverX

PDGFRA_T674I = biological target: T30, PDGFRA_T674I (Homo sapiens, UniProt P16234, T674I)
T30 construct: purchased DiscoverX

AXL = biological target: T31, AXL (Homo sapiens, UniProt P30530)
T31 construct: purchased DiscoverX

AKT3 = biological target: T32, AKT3 (Homo sapiens, UniProt Q9Y243)
T32 construct: purchased DiscoverX

CDK5_p25 = biological target: T33, CDK5_p25 (Homo sapiens, UniProt Q00535)
T33 construct: purchased DiscoverX

MAP2K2 = biological target: T34, MAP2K2 (Homo sapiens, UniProt P36507)
T34 construct: purchased DiscoverX
T34 sequence (P36507 whole entry): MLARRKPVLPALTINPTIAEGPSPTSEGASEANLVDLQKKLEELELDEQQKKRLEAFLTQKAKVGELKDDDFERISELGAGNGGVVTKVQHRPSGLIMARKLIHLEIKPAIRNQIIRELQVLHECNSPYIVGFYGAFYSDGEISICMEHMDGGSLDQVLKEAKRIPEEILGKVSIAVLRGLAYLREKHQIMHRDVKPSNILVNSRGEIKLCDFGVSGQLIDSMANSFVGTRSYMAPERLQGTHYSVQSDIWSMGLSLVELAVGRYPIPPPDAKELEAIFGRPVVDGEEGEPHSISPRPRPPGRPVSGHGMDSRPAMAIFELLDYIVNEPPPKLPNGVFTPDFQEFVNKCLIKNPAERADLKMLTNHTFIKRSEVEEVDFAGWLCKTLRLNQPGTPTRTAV

MAPK10 = biological target: T35, MAPK10 (Homo sapiens, UniProt P53779)
T35 construct: purchased DiscoverX

FLT3 = biological target: T36, FLT3 (Homo sapiens, UniProt P36888)
T36 construct: purchased DiscoverX

PAK7 = biological target: T37, PAK7 (Homo sapiens, UniProt Q9P286)
T37 construct: purchased DiscoverX
T37 sequence (Q9P286 whole entry): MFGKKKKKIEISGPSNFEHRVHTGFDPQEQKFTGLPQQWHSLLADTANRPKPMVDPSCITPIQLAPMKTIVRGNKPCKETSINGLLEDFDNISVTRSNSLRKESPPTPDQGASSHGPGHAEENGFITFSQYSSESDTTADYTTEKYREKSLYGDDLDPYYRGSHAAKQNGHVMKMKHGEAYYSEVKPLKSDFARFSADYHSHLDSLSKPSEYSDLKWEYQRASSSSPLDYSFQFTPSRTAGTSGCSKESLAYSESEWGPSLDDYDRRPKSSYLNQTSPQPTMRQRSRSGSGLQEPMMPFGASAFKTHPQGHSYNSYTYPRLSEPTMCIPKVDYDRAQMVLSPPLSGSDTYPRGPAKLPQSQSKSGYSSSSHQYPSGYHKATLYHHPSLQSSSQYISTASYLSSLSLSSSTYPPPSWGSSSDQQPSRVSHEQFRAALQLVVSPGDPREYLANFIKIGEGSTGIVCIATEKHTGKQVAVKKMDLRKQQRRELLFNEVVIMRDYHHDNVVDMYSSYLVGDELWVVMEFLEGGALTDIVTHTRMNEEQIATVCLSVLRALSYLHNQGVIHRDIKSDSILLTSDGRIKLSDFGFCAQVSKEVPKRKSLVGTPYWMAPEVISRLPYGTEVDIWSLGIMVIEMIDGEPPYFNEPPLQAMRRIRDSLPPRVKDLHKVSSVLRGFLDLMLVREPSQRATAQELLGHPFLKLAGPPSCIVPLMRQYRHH

TGFBR2 = biological target: T38, TGFBR2 (Homo sapiens, UniProt P37173)
T38 construct: purchased DiscoverX

PHKG2 = biological target: T39, PHKG2 (Homo sapiens, UniProt P15735)
T39 construct: purchased DiscoverX

MAPK9 = biological target: T40, MAPK9 (Homo sapiens, UniProt P45984)
T40 construct: purchased DiscoverX

IGF1R = biological target: T41, IGF1R (Homo sapiens, UniProt P08069)
T41 construct: purchased DiscoverX

IKBKE = biological target: T42, IKBKE (Homo sapiens, UniProt Q14164)
T42 construct: purchased DiscoverX

PRKCB1_II = biological target: T43, PRKCB1_II (Homo sapiens, UniProt P05771)
T43 construct: purchased DiscoverX

T1 sequence (P49759 whole entry): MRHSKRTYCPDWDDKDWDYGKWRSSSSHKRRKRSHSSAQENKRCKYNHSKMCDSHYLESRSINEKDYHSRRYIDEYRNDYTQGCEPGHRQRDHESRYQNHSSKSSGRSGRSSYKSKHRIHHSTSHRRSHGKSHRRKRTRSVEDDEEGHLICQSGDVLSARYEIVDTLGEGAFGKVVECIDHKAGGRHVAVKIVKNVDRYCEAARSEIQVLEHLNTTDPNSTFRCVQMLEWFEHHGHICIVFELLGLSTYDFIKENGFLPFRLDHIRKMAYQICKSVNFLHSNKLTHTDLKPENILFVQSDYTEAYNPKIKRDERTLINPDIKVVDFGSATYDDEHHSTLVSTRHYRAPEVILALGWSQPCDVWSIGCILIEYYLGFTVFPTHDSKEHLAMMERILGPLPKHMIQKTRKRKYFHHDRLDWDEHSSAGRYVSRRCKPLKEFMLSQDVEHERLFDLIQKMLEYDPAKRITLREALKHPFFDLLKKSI

## Clc1cc2cc(c1)-c1cnn3ccc(nc13)NCCOCCO2 [OD36]
CLK1
  inhibition at 0.1 µM: 7%
PIM3
  inhibition at 0.1 µM: 25%
DYRK3
  inhibition at 0.1 µM: 0%
ZAK
  inhibition at 0.1 µM: 70%
KIT_V654A
  inhibition at 0.1 µM: 5%
STK3
  inhibition at 0.1 µM: 12%
TSSK1B
  inhibition at 0.1 µM: 9%
JAK1
  inhibition at 0.1 µM: 18%
STK16
  inhibition at 0.1 µM: 12%
TYK2
  inhibition at 0.1 µM: 14%
TBK1
  inhibition at 0.1 µM: 11%
ALK
  inhibition at 0.1 µM: 6%
BRSK1
  inhibition at 0.1 µM: 8%
MAPK15
  inhibition at 0.1 µM: 17%
PRKG2
  inhibition at 0.1 µM: 14%
PAK4
  inhibition at 0.1 µM: -3%
KIT_D816V
  inhibition at 0.1 µM: 36%
MAP2K1
  inhibition at 0.1 µM: 6%
PIM2
  inhibition at 0.1 µM: 17%
EGFR_L747-S752del_P753S
  inhibition at 0.1 µM: 10%
PRKAA1
  inhibition at 0.1 µM: 21%
WEE1
  inhibition at 0.1 µM: 15%
TEK_R849W
  inhibition at 0.1 µM: 8%
EPHA7
  inhibition at 0.1 µM: 23%
ALK_F1174L
  inhibition at 0.1 µM: 8%
EPHB4
  inhibition at 0.1 µM: 6%
RPS6KA6
  inhibition at 0.1 µM: 8%
MAPK11
  inhibition at 0.1 µM: 11%
FES
  inhibition at 0.1 µM: 9%
PDGFRA_T674I
  inhibition at 0.1 µM: -22%
AXL
  inhibition at 0.1 µM: 10%
AKT3
  inhibition at 0.1 µM: -1%
CDK5_p25
  inhibition at 0.1 µM: 10%
MAP2K2
  inhibition at 0.1 µM: -7%
MAPK10
  inhibition at 0.1 µM: 17%
FLT3
  inhibition at 0.1 µM: 6%
PAK7
  inhibition at 0.1 µM: 8%
TGFBR2
  inhibition at 0.1 µM: 68%
PHKG2
  inhibition at 0.1 µM: 1%
MAPK9
  inhibition at 0.1 µM: 12%
IGF1R
  inhibition at 0.1 µM: 3%
IKBKE
  inhibition at 0.1 µM: 6%
PRKCB1_II
  inhibition at 0.1 µM: -5%

## Cc1cc2cc(c1)-c1cnn3ccc(nc13)NCCNC(=O)CCN(C)C2 [OD52]
CLK1
  inhibition at 0.1 µM: 6%
PIM3
  inhibition at 0.1 µM: 10%
DYRK3
  inhibition at 0.1 µM: -5%
ZAK
  inhibition at 0.1 µM: 6%
KIT_V654A
  inhibition at 0.1 µM: -9%
STK3
  inhibition at 0.1 µM: 5%
TSSK1B
  inhibition at 0.1 µM: -5%
JAK1
  inhibition at 0.1 µM: -6%
STK16
  inhibition at 0.1 µM: 9%
TYK2
  inhibition at 0.1 µM: -3%
TBK1
  inhibition at 0.1 µM: -1%
ALK
  inhibition at 0.1 µM: 8%
BRSK1
  inhibition at 0.1 µM: -1%
MAPK15
  inhibition at 0.1 µM: -3%
PRKG2
  inhibition at 0.1 µM: -10%
PAK4
  inhibition at 0.1 µM: 7%
KIT_D816V
  inhibition at 0.1 µM: -5%
MAP2K1
  inhibition at 0.1 µM: 10%
PIM2
  inhibition at 0.1 µM: 4%
EGFR_L747-S752del_P753S
  inhibition at 0.1 µM: -15%
PRKAA1
  inhibition at 0.1 µM: -11%
WEE1
  inhibition at 0.1 µM: 3%
TEK_R849W
  inhibition at 0.1 µM: -16%
EPHA7
  inhibition at 0.1 µM: -18%
ALK_F1174L
  inhibition at 0.1 µM: -6%
EPHB4
  inhibition at 0.1 µM: -25%
RPS6KA6
  inhibition at 0.1 µM: 0%
MAPK11
  inhibition at 0.1 µM: -5%
FES
  inhibition at 0.1 µM: -26%
PDGFRA_T674I
  inhibition at 0.1 µM: 4%
AXL
  inhibition at 0.1 µM: 10%
AKT3
  inhibition at 0.1 µM: 2%
CDK5_p25
  inhibition at 0.1 µM: -2%
MAP2K2
  inhibition at 0.1 µM: 7%
MAPK10
  inhibition at 0.1 µM: 1%
FLT3
  inhibition at 0.1 µM: -18%
PAK7
  inhibition at 0.1 µM: 5%
TGFBR2
  inhibition at 0.1 µM: 0%
PHKG2
  inhibition at 0.1 µM: -10%
MAPK9
  inhibition at 0.1 µM: -5%
IGF1R
  inhibition at 0.1 µM: -25%
IKBKE
  inhibition at 0.1 µM: -21%
PRKCB1_II
  inhibition at 0.1 µM: -7%
